Assay results: patent US10550120B2, “Indole alkaloid compound having immune checkpoint inhibitory action” (TOHOKU UNIVERSITY, priority 2016, dated 2020)

What was measured:
IL-10 = test: Measurement of human IL-10 amount in culture supernatant of MT2 cells with ELISA kit (Test 1); assay type: cell-based; settings: 48±2 hours; for activity at 12.5 µM / activity at 25 µM: Homo sapiens, 48 h, DMSO control = 100%, read-out: % against control (IL-10 production)
Method: (§1) MT2 cells from human adult T-cell leukemia were used. Leukemia cells of human adult T-cell leukemia (ATL) express CD4 and CD25 molecules on the cell surface and are considered to be derived from Treg (Chen S. et al., International Immunology 18:269-277 (2005)). MT2 cells were used in experiments as models of Treg since the cells are CD4 positive, CD25 positive, and FOXP3 positive celles derived from ATL.
(§2) The example compounds (compounds 1-17) of the present invention were dissolved in dimethylsulfoxide (DMSO) to prepare each 50 mmol/L solution, which was preserved at −80° C.
The amount of IL-10 production in the control and the example compounds was measured to evaluate the inhibitory effect on IL-10 production of the example compounds of the present invention.
(1) MT2 cells are suspended in RPMI1640 medium (hereinafter referred to as “the medium”) supplemented with 10% fetal calf serum (FCS) and 1% penicillin/streptomycin (P/S) to give 3×10^5 cells/mL suspension, and 1 mL of the suspension was added to each well of a 24-well plate. […] The cell cultures were incubated 48±2 hours in a CO2 incubator (under a condition of 37° C., 5 CO2). DMSO was diluted 50-fold with the medium, and 20 μL of the diluent was added to the well to make a control of compounds 1-7. In addition, DMSO was diluted 50-fold with the medium, and 25.0 μL of the diluent was added to the well to make a control of compounds 8-17.
(2) A piece of the cell culture was sampled to count cells with a cell counter (BIO RAD TC-20). The cell culture was centrifuged at 300×g for 5 minutes and the supernatant was collected as a sample for IL-10 measurement. When not measured within a day, it was preserved in a freezer at −80° C.
(3) Human IL-10 ELISA kit II (BD OptEIA) was used on the measurement. The kit contains wells treated with anti-IL-10 antibody (8 wells/strip), Standard/Sample diluent, vials comprising freeze-dried IL-10 Standard (1280 pg/vial), ELISA diluent, 20× Wash Buffer, Detection antibody, Enzyme Concentrate, TMB One Step Substrate Reagent, Stop Solution, and cover sheets.
(4) To a vial containing IL-10 Standard was added […] Standard/Sample diluent, and the vial was stood at room temperature for 15 minutes to be dissolved (Standard sample stock solution 1L-10 concentration: 500 pg/mL).
(5) Standard samples in each concentration for making a standard curve were prepared as follows. Firstly, to 300 μL of the medium was added 300 μL of the standard sample stock solution, and the mixture was mixed with a Voltex mixer (250 pg/mL). Next, 300 μL of the standard sample of 250 pg/mL was added to 300 μL of the medium and the mixture was mixed with a Voltex mixer (125 pg/mL). The same procedures were successively repeated to prepare standard solutions of 62.5, 31.25, 15.625, and 7.8125 pg/mL. As 0 pg/mL standard solution, the medium was used.
(6) A kit containing wells treated with anti-IL-10 antibody (8 wells/strip) was warmed to room temperature and 50 μL of ELISA diluent in the kit was added into each well.
(7) To each well containing ELISA diluent, 100 μL of the standard samples of each concentration and each test sample (diluded 50-100 fold with medium) were added.
(8) After the wells were sealed with a cover sheet and gently tapped, they were left at room temperature for 2 hours.
(9) 20× Wash Buffer was diluted 20-fold with water to prepare 1× Wash Buffer.
(10) After the reaction was done for 2 hours, the solutions in each well were aspirated and washed 5 times with 300 μL of 1× Wash Buffer.
(11) After Enzyme Concentrate (4 μL per 8 wells) was added to Detection antibody (1 ml per 8 wells), the solution was mixed by a Vortex mixer and then a necessary amount of Working Detector was prepared.
(12) 100 μL of Working Detector was added to each well, covered with a cover sheet, and the wells were left at room temperature for an hour.
(13) After the reaction was done for an hour, the solutions in wells were aspirated and washed 7 times with 300 μL of 1× Wash Buffer. […]

CTLA-4 = test: Intracellular staining of MT2 cells with fluorescence-labeled anti-CTLA-4 antibody and measurement by flow cytometry; assay type: cell-based, human; settings: 25.0 μmol/L, 48±2 hours; for Peak MFI of CTLA-4: isotype IgG2a subtracted, average of n=3; for activity at 25 µM: Homo sapiens, 48 h, DMSO control = 100%, read-out: % against control (CTLA-4 expression)
Method: as §1, §2
(1) MT2 cells were suspended in RPMI1640 medium (hereinafter referred to as “the medium”) supplemented with 10% fetal calf serum (FCS) and 1° penicillin/streptomycin (P/S) to give 3×10^5 cells/mL suspension and 3 mL of the suspension was added to each well of a 6-well plate. To each well were added 0.6 or 1.2 μL of the test compound solutions (compounds 1, 2, and 4), 0.75 or 1.5 μL of the test compound solution (compound 9), and 1.5 μL of the test compound solutions (compounds 8 and 10-17), and the cell cultures were incubated in a CO2 gas incubator (under 37° C., 5% CO2) and cultured for 48±2 hours. As a control of compound 1, 2 and 4, only 1.2 μL of DMSO was added to the well. In addition, as a control of compound 8-17, only 1.5 μL of DMSO was added to the well.
(2) A piece of the cell culture was sampled to count cells with a cell counter (BIO RAD TC-20). The cell culture was centrifuged at 300×g for 5 min, and the supernatant was removed. The residue was suspended in phosphate buffered saline (supplemented with 1% bovine serum albumin (BSA), without calcium and magnesium) (1% BSA/PBS) to adjust the concentration of cells to 5-10×10^6 cells/mL.
(3) To 5 ml tube, each 50 μL of the cell suspension was added.
(4) Foxp3/Transcription Factor Fix/Perm Concentrate (4×) (Cat. No. TNB-1020-L050) (Solution A) in FOXP3/Transcription Factor Staining kit (TONBO biosciences) was diluted with Foxp3/Transcription Factor Fix/Perm Diluent (1×) (Cat. No. TNB-1022-L160) (for dilution of Solution A) to prepare 1× Solution A.
(5) 1 mL of 1× Solution A was added to each tube and mixed by gentle pipetting. Subsequently, it was left at room temperature for 30 min, centrifuged at 300×g for […], and the supernatant was discarded.
(6) Flow Cytometry Perm Buffer (10×) (Cat. No. TNB-1213-L150) (Solution B) in the kit was diluted 10-fold with water to prepare 1× Solution B.
(7) 2 mL of 1× Solution B was added to the tube and centrifuged at 300×g for 5 min. The supernatant was discarded. 2 μL of 2% normal mouse serum/PBS was added to the tube and the tube was gently pipetted. Subsequently, it was left at room temperature for 15 min.
(8) In the CTLA-4 measurement, 20 μL of anti-CTLA-4 antibody (BECKMAN COULTER, CD152-PE clone BN13I M2282) or mouse IgG2a (BECKMAN COULTER, IgG2a (Mouse)-PE A09142) for the control was added to the tube and the tube was gently stirred. Subsequently, it was left in the dark at room temperature for 30 min, and 2 mL of the 1× Solution B was added thereto, the mixture was centrifuged at 300×g for 5 min, and the supernatant was discarded. 2 mL of the 1× Solution B was added to the tube again, the mixture was centrifuged at 300×g for 5 min, and the supernatant was discarded.
(9) Within 2 hours after the solution in the tube was suspended in 0.5 mL of 1% BSA/PBS, and the fluorescence at 577 nm was measured with 488 nm excitation with a flow cytometer (Sony: Cell Sorter SH800). The results were analyzed with software, FlowJo (Tree Star Inc.). The mean peak fluorescence intensity (MFI) of CTLA-4 and mean peak fluorescence intensity of isotype control IgG2a were calculated from histgrams of the measured fluorescence intensity and number of cells, and mean fluorescence intensity of IgG2a was subtracted from that of CTLA-4. Experiments were conducted in n=3, and the average values were shown.

COC(=O)C1=CN2CCc3c([nH]c4ccc(C)cc34)[C@@H]2[C@@H]2[C@@H](C)[C@@H](O)C[C@H]12 [Compound 14]
IL-10 (ng/10^6 cells) ± standard deviate (n = 3) (IL-10; 12.5 μmol/L): 7.4 ± 0.3 ng/10^6 cells | IL-10 (ng/10^6 cells) ± standard deviate (n = 3) (IL-10; 25.0 μmol/L): 4.3 ± 1.0 ng/10^6 cells | activity at 12.5 µM (IL-10; 12.5 μmol/L): 67.7% | activity at 25 µM (IL-10; 25.0 μmol/L): 39.2% | Peak MFI of CTLA-4 (CTLA-4): 450 | activity at 25 µM (CTLA-4): 53%

COC(=O)C1=CN2CCc3c([nH]c4ccc(OCc5ccccc5)cc34)[C@@H]2[C@@H]2[C@@H](C)[C@@H](O)C[C@H]12 [Compound 15]
IL-10 (ng/10^6 cells) ± standard deviate (n = 3) (IL-10; 12.5 μmol/L): 6.5 ± 0.2 ng/10^6 cells | IL-10 (ng/10^6 cells) ± standard deviate (n = 3) (IL-10; 25.0 μmol/L): 0.6 ± 0.4 ng/10^6 cells | activity at 12.5 µM (IL-10; 12.5 μmol/L): 59.3% | activity at 25 µM (IL-10; 25.0 μmol/L): 5.1% | Peak MFI of CTLA-4 (CTLA-4): 284 | activity at 25 µM (CTLA-4): 37.7%

COC(=O)C1=CN2CCc3c([nH]c4ccc(O)cc34)[C@@H]2[C@@H]2[C@@H](C)[C@@H](O)C[C@H]12 [Compound 16]
IL-10 (ng/10^6 cells) ± standard deviate (n = 3) (IL-10; 12.5 μmol/L): 9.8 ± 0.3 ng/10^6 cells | IL-10 (ng/10^6 cells) ± standard deviate (n = 3) (IL-10; 25.0 μmol/L): 8.6 ± 0.1 ng/10^6 cells | activity at 12.5 µM (IL-10; 12.5 μmol/L): 88.9% | activity at 25 µM (IL-10; 25.0 μmol/L): 77.9% | Peak MFI of CTLA-4 (CTLA-4): 529 | activity at 25 µM (CTLA-4): 70.3%

COC(=O)C1=CN2CCc3c([nH]c4c(F)cccc34)[C@@H]2[C@@H]2[C@@H](C)[C@@H](O)C[C@H]12 [Compound 17]
IL-10 (ng/10^6 cells) ± standard deviate (n = 3) (IL-10; 12.5 μmol/L): 7.0 ± 0.2 ng/10^6 cells | IL-10 (ng/10^6 cells) ± standard deviate (n = 3) (IL-10; 25.0 μmol/L): 6.0 ± 0.2 ng/10^6 cells | activity at 12.5 µM (IL-10; 12.5 μmol/L): 64.2% | activity at 25 µM (IL-10; 25.0 μmol/L): 54.2% | Peak MFI of CTLA-4 (CTLA-4): 339 | activity at 25 µM (CTLA-4): 45%
